Laboratory results reported in article PMC11397358, “Cytotoxic Activity of Novel GnRH Analogs Conjugated with Mitoxantrone in Ovarian Cancer Cells” (Molecules, 2024).

Test system: SKOV-3 cells
Experiment: Confocal microscopy of intracellular mitoxantrone fluorescence, quantified with Image J
Assay type: cell-based, human
Settings: 6 h; for localization of mitoxantrone fluorescence, in words: 1 μM, Hoechst nuclear stain; for effect of cisplatin on intracellular accumulation of mitoxantrone, in words: 1 μΜ, cisplatin 30 μg/mL for 1 h before treatment
Source text: To determine the accumulation of mitoxantrone within the SKOV-3 cells, we used confocal microscopy, exploiting the ability of mitoxantrone to fluoresce. Specifically, the excitation maxima of mitoxantrone are at 610 and 660 nm, whereas its emission maximum is at 685 nm. To stain the nuclei, we used the Hoechst dye. […] In contrast, the fluorescence signal was absent in untreated cells.
(§1) Figure 9 Confocal microscopy images of SKOV-3 cells treated with or without the GnRH-mitoxantrone conjugates, Con-3, Con-7 or mitoxantrone at a concentration of 1 μΜ for 6 h at 37 °C. At the end of the incubation, the cell nuclei were stained with the DNA-staining Hoechst 33342 dye and confocal fluorescent images were obtained after sequential excitation at 350 nm (for the Hoechst dye) and 638 nm (for the mitoxantrone). The emission filters of 461 nm and 650 nm–700 nm were used for collecting blue (Hoechst dye) and red (mitoxantrone) signals in separate channels. The left images show the nuclei staining with Hoechst dye (blue), whereas the middle ones depict the mitoxantrone fluorescence (red). The right images were created by merging the […] and middle ones and depict the localization of mitoxantrone (red) in both the cytoplasm and the nuclei. The figures are shown from a representative experiment performed three times with similar results.
We hypothesized that the GnRH-conjugated mitoxantrone of Con-3 and Con-7 entered the SKOV-3 cells after the reduction in the disulfide bond linking the GnRH analogs with mitoxantrone and subsequent release of the latter from the conjugates. This chemical reaction could be accomplished by the thioredoxin system, which is overexpressed in cancer cells and reduces the disulfide bonds of proteins and peptides. To verify this hypothesis, we incubated the SKOV-3 cells with cisplatin at a concentration of 30 μg/mL for 1 h before treating them with Con-3 or Con-7 conjugates. Cisplatin is a potent inhibitor of the thioredoxin system.
as §1, with “Figure 10” for “Figure 9”, “with” for “with or without”, “conjugates, Con-3 or” for “conjugates, Con-3,”, “Con-7 (1” for “Con-7 or mitoxantrone at a concentration of 1”, “6 h)” for “6 h”, “37 °C, in the presence or absence of cisplatin. Cisplatin was added to the cells 1 h before their incubation with the GnRH-mitoxantrone conjugates.” for “37 °C.”
Figure 11 Confocal microscopy images of SKOV-3 cells treated with mitoxantrone (1 μΜ for 6 h) at 37 °C, in the presence or absence of cisplatin. Cisplatin was added to the cells 1 h before their incubation with mitoxantrone. At the end of the incubation, the cell nuclei were stained with the DNA-staining Hoechst 33342 dye and confocal fluorescent images were obtained after sequential excitation at 350 nm (for the Hoechst dye) and 638 nm (for the mitoxantrone). The emission filters of 461 nm and 650 nm–700 nm were used for collecting blue (Hoechst dye) and red (mitoxantrone) signals in separate channels. The left images show the nuclei staining with Hoechst dye (blue), whereas the middle ones depict the mitoxantrone fluorescence (red). […]

Structure (SMILES)	localization of mitoxantrone fluorescence, in words	effect of cisplatin on intracellular accumulation of mitoxantrone, in words
CCNC(=O)[C@@H]1CCCN1C(=O)[C@H](CCCNC(=N)N)NC(=O)[C@H](CC(C)C)NC(=O)[C@@H](CCCCNC(=O)CCCCCNC(=O)CCSSCC(=O)OCCNCCNc1ccc(NCCNCCO)c2c1C(=O)c1c(O)ccc(O)c1C2=O)NC(=O)[C@H](Cc1ccc(O)cc1)NC(=O)[C@H](CO)NC(=O)[C@H](Cc1c[nH]c2ccccc12)NC(=O)[C@H](Cc1c[nH]cn1)NC(=O)[C@@H]1CCC(=O)N1 [Con-7]	detected in both the cytoplasm and nucleus	abolished the accumulation of mitoxantrone
CCNC(=O)[C@@H]1CCCN1C(=O)[C@H](CCCNC(=N)N)NC(=O)[C@H](CC(C)C)NC(=O)[C@@H](CSSCCC(=O)OCCNCCNc1ccc(NCCNCCO)c2c1C(=O)c1c(O)ccc(O)c1C2=O)NC(=O)[C@H](Cc1ccc(O)cc1)NC(=O)[C@H](CO)NC(=O)[C@H](Cc1c[nH]c2ccccc12)NC(=O)[C@H](Cc1c[nH]cn1)NC(=O)[C@@H]1CCC(=O)N1 [Con-3]	detected in both the cytoplasm and nucleus	abolished the accumulation of mitoxantrone
O=C1c2c(O)ccc(O)c2C(=O)c2c(NCCNCCO)ccc(NCCNCCO)c21 [mitoxantrone]	detected in both the cytoplasm and nucleus	did not affect the intracellular accumulation
